According to patent publication US20260215423A1, “NOVEL CARBOXAMIDE AND SULFONAMIDE PESTICIDAL COMPOUNDS” (SYNGENTA CROP PROTECTION AG, priority 2023, published 2026):

Key:
Type in all cases: in vivo
[1] = tested on: Myzus persicae (Green Peach Aphid); assay: Myzus persicae (Green Peach Aphid). Intrinsic Activity; settings: 120 h, test rate of 12 ppm, mixed with sucrose solution, feeding through Parafilm, 5 days after infestation
Text: Example B7: Myzus persicae (Green Peach Aphid). Intrinsic Activity
Test compounds prepared from 10′000 ppm DMSO stock solutions were applied by pipette into 24-well microtiter plates and mixed with sucrose solution. The plates were closed with a stretched Parafilm. A plastic stencil with 24 holes was placed onto the plate and infested pea seedlings were placed directly on the Parafilm. The infested plate was closed with a gel blotting paper and another plastic stencil and then turned upside down. The samples were assessed for mortality 5 days after infestation.

[2] = tested on: Plutella xylostella (Diamond back moth); assay: Plutella xylostella (Diamond back moth); settings: 192 h, application rate of 200 ppm, artificial diet treated by pipetting, Plutella eggs, 8 days after infestation, read-out: effect in at least one of the two categories (mortality or growth inhibition)
Protocol: After drying, Plutella eggs were pipetted through a plastic stencil onto a gel blotting paper and the plate was closed with it. The samples were assessed for mortality and growth inhibition in comparison to untreated samples 8 days after infestation.

[3] = tested on: Diabrotica balteata (Corn root worm); assay: Diabrotica balteata (Corn root worm); settings: 96 h, application rate of 200 ppm, maize sprouts sprayed, L2 larvae, 4 days after infestation, read-out: effect in at least one of the two categories (mortality or growth inhibition)
Protocol: Example B2: Diabrotica balteata (Corn root worm)
Maize sprouts placed onto an agar layer in 24-well microtiter plates were treated with aqueous test solutions prepared from 10′000 ppm DMSO stock solutions by spraying. After drying, the plates were infested with L2 larvae (6 to 10 per well). The samples were assessed for mortality and growth inhibition in comparison to untreated samples 4 days after infestation.

[4] = tested on: Myzus persicae (Green Peach Aphid); assay: Myzus persicae (Green Peach Aphid) Feeding/Contact Activity, eggplant leaf discs; settings: foliar, 144 h, application rate of 200 ppm, eggplant leaf discs sprayed, aphid population of mixed ages, 6 days after infestation, read-out: growth inhibition
Text: Example B8: Myzus persicae (Green Peach Aphid) Feeding/Contact Activity Eggplant leaf discs were placed onto agar in a 24-well microtiter plate and sprayed with aqueous test solutions prepared from 10′000 ppm DMSO stock solutions. After drying, the leaf discs were infested with an aphid population of mixed ages. […]

Compound | mortality at 12 ppm [1] [%] | percent effect (mortality or growth inhibition) at 200 ppm [2] [%] | percent effect (mortality or growth inhibition) at 200 ppm [3] [%] | inhibition at 200 ppm [4] [%]
C[C@@H](COc1ccc(Cl)c(CNC(=O)C2CSC2)c1)NS(=O)(=O)C(F)(F)F [P-6] | ≥ 80 |  |  | 
C[C@@H](COc1ccc(Cl)c(CNC(=O)C2CCC2)c1)NS(=O)(=O)C(F)(F)F [P-7] | ≥ 80 | ≥ 80 |  | 
C[C@@H](COc1ccc(Cl)c(CNC(=O)C2CCC2)c1)N(C(=O)C1CCC1)S(=O)(=O)C(F)(F)F [P-8] | ≥ 80 | ≥ 80 |  | 
C[C@@H](COc1cnc(Cl)c(CNC(=O)C2CC2)c1)NS(=O)(=O)C(F)(F)F [P-9, N-[[2-chloro-5-[(2S)-2-(trifluoromethylsulfon-ylamino)propoxy]-3-pyridyl]methyl]cyclo-propanecarboxamide] | ≥ 80 | ≥ 80 |  | 
CCC(=O)NCc1cc(OC[C@H](C)NS(=O)(=O)C(Cl)Cl)ccc1Cl [P-10] | ≥ 80 |  |  | 
CCC(=O)NCc1cc(OC[C@H](C)NS(=O)(=O)C(F)F)ccc1Cl [P-11] | ≥ 80 | ≥ 80 |  | 
CCC(=O)NCc1cc(OC[C@H](C)NS(=O)(=O)c2ccc(C#N)c(Cl)c2)ccc1Cl [P-12, N-[[2-chloro-5-[(2S)-2-[(3-chloro-4-cyano-phenyl)sulfonylamino]propoxy]phenyl]meth-yl]propanamide] |  |  | ≥ 80 | 
CCC(=O)NCc1cc(OC[C@H](C)NS(=O)(=O)c2cnc(Cl)c(Cl)c2)ccc1Cl [P-13, N-[[2-chloro-5-[(2S)-2-[(5,6-dichloro-3-pyridyl)sulfonylamino]propoxy]phenyl]meth-yl]propanamide] |  | ≥ 80 | ≥ 80 | 
CCC(=O)NC1(c2cc(OC[C@H](C)NS(=O)(=O)C(F)(F)F)ccc2Cl)CC1 [P-14, N-[1-[2-chloro-5-[(2S)-2-(trifluoromethylsul-fonylamino)propoxy]phenyl]cyclopropyl] propanamide] |  |  | ≥ 80 | 
COCC(=O)NCc1cc(OC[C@H](C)N(C(=O)COC)S(=O)(=O)C(F)(F)F)ccc1Cl [P-16, N-[[2-chloro-5-[(2S)-2-[(2-methoxyacetyl)-(trifluoromethylsulfon-yl)amino]propoxy]phenyl]methyl]-2-methoxy-acetamide] | ≥ 80 |  |  | ≥ 80
C[C@@H](COc1cnc(Cl)c(CNC(=O)CC2CC2)c1)NS(=O)(=O)C(F)(F)F [P-21, N-[[2-chloro-5-[(2S)-2-(trifluoromethylsul-fonylamino)propoxy]-3-pyridyl]methyl]-2-cyclopropyl-acetamide] | ≥ 80 |  |  | ≥ 80
C[C@@H](COc1cnc(Cl)c(CNC(=O)C2(C#N)CC2)c1)NS(=O)(=O)C(F)(F)F [P-23, N-[[2-chloro-5-[(2S)-2-(trifluoromethylsul-fonylamino)propoxy]-3-pyridyl]methyl]-1-cyano-cyclopropane-carboxamide] |  |  |  | ≥ 80
C[C@@H](COc1cnc(Cl)c(CNC(=O)C2CCCO2)c1)NS(=O)(=O)C(F)(F)F (some centres unmarked) [P-27] |  |  |  | ≥ 80
C[C@@H](COc1cnc(Cl)c(CNC(=O)C(F)(Cl)Cl)c1)NS(=O)(=O)C(F)(F)F [P-29, 2,2-dichloro-N-[[2-chloro-5-[(2S)-2-(trifluoromethylsul-fonylamino)propoxy]-3-pyridyl]methyl]-2-fluoro-acetamide] |  |  |  | ≥ 80
C[C@@H](COc1cnc(Cl)c(CNC(=O)CC2CC2(Cl)Cl)c1)NS(=O)(=O)C(F)(F)F (some centres unmarked) [P-30] |  |  |  | ≥ 80
C[C@@H](COc1cnc(Cl)c(CNC(=O)C(F)F)c1)NS(=O)(=O)C(F)(F)F [P-32, N-[[2-chloro-5-[(2S)-2-(trifluoromethylsul-fonylamino)propoxy]-3-pyridyl]methyl]-2,2-difluoro-acetamide] | ≥ 80 |  |  | 
